Laboratory results: article PMC11116084 (Journal of Applied Glycoscience, 2024)

Test system: ALMAN (Allium cepa α-mannosidase)
Assay: p-nitrophenol release, absorption at […] nm
Assay type: biochemical
Conditions: 20 mM sodium acetate pH 4.0, 40 °C (standard assay)

Km: 1690 µM
SMILES: O=[N+]([O-])c1ccc(O[C@H]2O[C@H](CO)[C@@H](O)[C@H](O)[C@@H]2O)cc1 [pNP-α-Man]
